From US9409904B2, “Compounds and compositions for use in augmentation of glucose” (YISSUM RESEARCH DEVELOPMENT COMPANY OF THE HEBREW …, priority 2011, dated 2016)
“Also recorded” adds a separate entry of the source. Read-outs that look alike come from different tables or passages of the source.

Assays:
AMPK = experiment: Thr172 phosphorylation of AMPK in L6 myotubes, Western blot of whole cell lysates; format: cell-based; conditions: for Thr172 phosphorylation in AMPK / AMPK activation (result in words): L6 myotubes
Method: The effect of the various derivatives on the rate of glucose uptake in L6 myotubes was investigated. […] The abundance of GLUT1 and GLUT4 in the plasma membranes of L6 myotubes was determined in cells expressing GLUT-1myc or GLUT-4myc, as described before. […] In addition, the effect of compounds on the glucose—stimulated insulin secretion (GSIS) was investigated. Whole cell lysates were prepared as previously described with some minor modifications: the lysis buffer contained 50 mM Tris-HCl, pH 7.5, 1 mM EDTA, 1 mM EGTA, 1 mM Na3VO4, 150 mM NaCl, 50 mM NaF, 10 mM sodium-glycerophosphate, 5 mM sodium pyrophosphate, and 1 mM PMSF, supplemented with 0.1% (v/v) NP-40, 0.1% (v/v) 2-β-mercaptoethanol, and protease inhibitor cocktail (1:100 dilution). The cells were washed by ice-cold PBS, and 1 ml of lysis buffer was then added and incubated at 4° C. for 40 minutes. The resulting cell lysates were centrifuged at 8,700 g×30 minutes at 4° C. and the resulting supernatant fractions were separated and kept at −20° C. until used. Protein content in the supernatant was determined according to Bradford, using a BSA standard dissolved in the same buffer. […] Samples for Western blot analyses of GLUT1 and GLUT4 were prepared as described in [22]. The proteins were separated on 10% SDS-PAGE and Western blot analyses performed using antibodies according to our previously established protocols.

L6 myotubes = experiment: [3H]-2-deoxy-D-glucose (dGlc) uptake assay in L6 myotubes; format: cell-based; conditions: for rate of glucose uptake compared to vehicle (DMSO) treated control / activity at 100 µM: 100 μM; for rate of glucose uptake compared to vehicle (DMSO) treated control: basal rate = 100%; for activity at 100 µM: Mean ± SD (n = 3), read-out: Effect on glucose uptake [100 μM] in L6 myotubes (%); for maximal effective concentration, glucose uptake: dose response, 5 h (3) or 12 h (4, 15)
Method: The effect of the various derivatives on the rate of glucose uptake in L6 myotubes was investigated. […] The abundance of GLUT1 and GLUT4 in the plasma membranes of L6 myotubes was determined in cells expressing GLUT-1myc or GLUT-4myc, as described before. […] In addition, the effect of compounds on the glucose—stimulated insulin secretion (GSIS) was investigated.
L6 myotubes were maintained as described in [21]. All experiments were conducted on fully differentiated myotubes.
The rate of [^3H]dGlc uptake in myotubes, in the absence or presence of insulin, was determined as described in [21]. […] […] The cultures were then rinsed 3 times with PBS at room temperature and incubated with PBS, pH 7.4, containing 0.1 mM dGlc and 1.0 μCi/ml [^3H]dGlc for 5 minutes at room temperature. At the end of the assay, the myotubes were lysed in 0.1% (w/v) SDS in water and taken for liquid scintillation.

INS-1E cells = experiment: Glucose-stimulated insulin secretion (GSIS) from INS-1E cells, insulin RIA; format: cell-based
Method: INS-1E cells (passages 70-90) were grown and maintained as described in Merglen A et al. Endocrinology 2004, 145:667-678.
To investigate the glucose—stimulated insulin secretion (GSIS) and insulin radioimmunoassay-confluent cultures of INS-1E cells were pre-incubated for 30 min in KRBH-BSA buffer containing 3.3 mM glucose. This was followed by 1-h incubation at 3.3 and an additional 1-h at 16.7 mM glucose, as described (1). Aliquots from the incubation buffers were collected, cleared by centrifugation and frozen until used for insulin RIA. Total insulin content in β-cells was similarly measured in aliquots of cell extracts (1). RIA kits rat insulin (Linco Research, St. Charles, Mo.) was used according to manufacturers' protocols.

## Oc1nc2ccc(Br)cc2s1 [Compound 15, 6-bromo-2-benzothiazolinone]
AMPK
  Thr172 phosphorylation in AMPK / AMPK activation (result in words): significantly induced
L6 myotubes
  persistence of stimulatory effect on glucose uptake: 24 h
  rate of glucose uptake in L6 myotubes (result in words): increase
  rate of glucose uptake compared to vehicle (DMSO) treated control: 132.9%±13.8%
  maximal effective concentration, glucose uptake: 100 µM
L6 myotubes; Rattus norvegicus, L6, Table 2
  activity at 100 µM: 133 ± 13.8%

## Nc1nccs1 [Compound 10, 2-aminothiazole]
L6 myotubes; Rattus norvegicus, L6, Table 1
  activity at 100 µM: 95.7 ± 5.1%

## CCOc1ccc2nc(S)sc2c1 [Compound 4, 6-ethoxybenzo[d]thiazole-2-thiol]
AMPK
  Thr172 phosphorylation in AMPK / AMPK activation (result in words): significantly induced
L6 myotubes
  persistence of stimulatory effect on glucose uptake: 24 h
  rate of glucose uptake in L6 myotubes (result in words): increase
  rate of glucose uptake compared to vehicle (DMSO) treated control: 172.4%±12.4%
  maximal effective concentration, glucose uptake: 100 µM
L6 myotubes; Rattus norvegicus, L6, Table 2
  activity at 100 µM: 172 ± 12.4%

## c1ccc2scnc2c1 [Compound 13, benzothiazole]
L6 myotubes; Rattus norvegicus, L6, Table 2
  activity at 100 µM: 117 ± 9.7%

## NC1=NC(=O)/C(=C\C=C\c2ccc([N+](=O)[O-])o2)S1 [Compound 2, (E)-2-Amino-5-((E)-3-(5-nitrofuran-2-yl)allylidene)thiazol-4(5H)-one]
AMPK
  Thr172 phosphorylation in AMPK / AMPK activation (result in words): marginally induced
L6 myotubes
  rate of glucose uptake in L6 myotubes (result in words): slightly increased
L6 myotubes; L6 myotubes, data not shown
  concentrations at which effects on glucose uptake and Thr172 phosphorylation were observed: above 500 μM

## c1ccc2[nH]c(SSc3nc4ccccc4[nH]3)nc2c1 [Compound 32, 1,2-di(1H-benziimidazol-2-yl)disulfane]
L6 myotubes
  rate of glucose uptake in L6 myotubes (result in words): no stimulatory effect

## Nc1ncc([N+](=O)[O-])s1 [Compound 12, 2-amino-5-nitrothiazole]
L6 myotubes; Rattus norvegicus, L6, Table 1
  activity at 100 µM: 95.1 ± 8.9%

## Cn1cnnc1S [Compound 7, 3-mercapto-4-methyl-4H-1,2,4-triazole]
L6 myotubes; Rattus norvegicus, L6, Table 1
  activity at 100 µM: 107 ± 7.5%

## c1cnc2[nH]nnc2c1 [Compound 16, 1H-1,2,3-triazolo[4,5]pyridine]
L6 myotubes; Rattus norvegicus, L6, Table 2
  activity at 100 µM: 86.7 ± 17.9%

## CCOc1ccc2nc(S(N)(=O)=O)sc2c1 [Compound 30, 6-ethoxybenzothiazole-2-sulfonamide]
L6 myotubes
  rate of glucose uptake in L6 myotubes (result in words): inactive

## Nc1nncs1 [Compound 5, 2-amino-1,3,4-thiadiazole]
L6 myotubes; Rattus norvegicus, L6, Table 1
  activity at 100 µM: 97.4 ± 2.9%

## CCOc1ccc2nc(SSc3nc4ccc(OCC)cc4s3)sc2c1 [Compound 31, 1,2-bis(6-ethoxybenzothiazol-2-yl)disulfane]
AMPK; incubation time
  persistence of Thr172 phosphorylation of AMPK: up to 5 hours
  time to induction of Thr172 phosphorylation in AMPK: ≤ 40 min
L6 myotubes
  rate of glucose uptake in L6 myotubes (result in words): increase; also recorded: substantially increased
L6 myotubes; Rattus norvegicus, L6, 150 μM within 5 hours of incubation, read-out: maximal effect on rate of glucose uptake, compared with a non-treated control
  Emax: 189 ± 21.8%
L6 myotubes; listed as EMM-5
  rate of glucose uptake in L6 myotubes (result in words): increases
other
  melting point: 185 to 190 °C
INS-1E cells
  glucose-stimulated insulin secretion from INS-1E cells (result in words): increases

## SC1=NCCS1 [Compound 11, 2-mercapto-2-thiazoline]
L6 myotubes; Rattus norvegicus, L6, Table 1
  activity at 100 µM: 106 ± 6.8%

## CCCSc1nc2ccc(O)cc2s1 [Compound 20, 2-(propylthio)benzothiazol-6-ol]
L6 myotubes
  rate of glucose uptake in L6 myotubes (result in words): increase
L6 myotubes; listed as EMM-45
  rate of glucose uptake in L6 myotubes (result in words): increases; also recorded: induced an increase; also recorded: induces stimulation
other
  melting point: 67 to 70 °C
INS-1E cells
  glucose-stimulated insulin secretion from INS-1E cells (result in words): augments
INS-1E cells; 10 μM, indicated time periods
  glucose stimulated insulin secretion in INS-1E: increased
INS-1E cells; 25 μM
  glucose-stimulated insulin secretion: increased

## c1ccc2[nH]nnc2c1 [Compound 17, 1H-benzotriazole]
L6 myotubes; Rattus norvegicus, L6, Table 2
  activity at 100 µM: 87.5 ± 11.4%

## Oc1ccc2nc(S)sc2c1 [Compound 19, 2-mercaptobenzothiazol-6-ol]
L6 myotubes
  rate of glucose uptake in L6 myotubes (result in words): did not stimulate

## Cn1ccnc1S [Compound 9, 2-mercapto-1-methylimidazole]
L6 myotubes; Rattus norvegicus, L6, Table 1
  activity at 100 µM: 93 ± 9.5%

## CCCNC(=O)CSc1nc2ccc(OCC)cc2s1 [Compound 33, 2-((6-ethoxybenzothiazol-2-yl)thio)-N-propylacetamide]
AMPK; incubation time
  time to significant Thr172 phosphorylation of AMPK: 5 h
L6 myotubes
  rate of glucose uptake in L6 myotubes (result in words): increase; also recorded: markedly augmented
L6 myotubes; 100 μM within 5 hours of incubation
  increase of rate of glucose uptake: 2 fold

## CCOc1ccc2nc(N)sc2c1 [Compound 14, 6-ethoxybenzothiazol-2-amine]
L6 myotubes; Rattus norvegicus, L6, Table 2
  activity at 100 µM: 111 ± 14.2%

## CCCCSc1nc2ccc(O)cc2s1 [Compound 23, 2-(butylthio)benzothiazol-6-ol]
other
  melting point: 80 to 85 °C

## Cc1nnc(N)s1 [Compound 6, 2-amino-5-methyl-1,3,4-thiadiazole]
L6 myotubes; Rattus norvegicus, L6, Table 1
  activity at 100 µM: 101 ± 5.5%

## CCC(CC)CSc1nc2ccc(O)cc2s1 [Compound 21, 2-(2-ethylbutylthio)benzothiazol-6-ol]
other
  melting point: 105 to 110 °C

## Sc1ncccn1 [Compound 8, 2-mercaptopyrimidine]
L6 myotubes; Rattus norvegicus, L6, Table 1
  activity at 100 µM: 100 ± 4.9%

## CCOc1ccc2nc(SCCC(=O)O)sc2c1 [Compound 25, 3-(6-ethoxybenzothiazol-2-ylthio)propanoic acid]
AMPK
  Thr172 phosphorylation in AMPK / AMPK activation (result in words): activated AMPK
AMPK; incubation time
  time of maximal (peak) Thr172 phosphorylation in AMPK: 60 min
L6 myotubes
  rate of glucose uptake in L6 myotubes (result in words): increase
L6 myotubes; 50 μM, within 5 hours of incubation
  increase of glucose uptake in comparison with vehicle-treated cells: 1.8 fold
other
  melting point: 175 to 178 °C
